Results reported in patent US20260217697A1, “COMPOUNDS COMPRISING HETEROARYL RINGS AND COMPOSITIONS AND METHODS THEREOF” (lonGen Therapeutics Co., Ltd., priority 2022, published 2026).

Target: T1, hTRPV3 (Homo sapiens, UniProt Q8NET8)
T1 construct: The commercially available plasmid with the full-length cDNA of hTRPV3 (791 aa) (NM_001258205.2); host or cells: HEK293T
T1 sequence (Q8NET8 1-791 isoform Q8NET8-2): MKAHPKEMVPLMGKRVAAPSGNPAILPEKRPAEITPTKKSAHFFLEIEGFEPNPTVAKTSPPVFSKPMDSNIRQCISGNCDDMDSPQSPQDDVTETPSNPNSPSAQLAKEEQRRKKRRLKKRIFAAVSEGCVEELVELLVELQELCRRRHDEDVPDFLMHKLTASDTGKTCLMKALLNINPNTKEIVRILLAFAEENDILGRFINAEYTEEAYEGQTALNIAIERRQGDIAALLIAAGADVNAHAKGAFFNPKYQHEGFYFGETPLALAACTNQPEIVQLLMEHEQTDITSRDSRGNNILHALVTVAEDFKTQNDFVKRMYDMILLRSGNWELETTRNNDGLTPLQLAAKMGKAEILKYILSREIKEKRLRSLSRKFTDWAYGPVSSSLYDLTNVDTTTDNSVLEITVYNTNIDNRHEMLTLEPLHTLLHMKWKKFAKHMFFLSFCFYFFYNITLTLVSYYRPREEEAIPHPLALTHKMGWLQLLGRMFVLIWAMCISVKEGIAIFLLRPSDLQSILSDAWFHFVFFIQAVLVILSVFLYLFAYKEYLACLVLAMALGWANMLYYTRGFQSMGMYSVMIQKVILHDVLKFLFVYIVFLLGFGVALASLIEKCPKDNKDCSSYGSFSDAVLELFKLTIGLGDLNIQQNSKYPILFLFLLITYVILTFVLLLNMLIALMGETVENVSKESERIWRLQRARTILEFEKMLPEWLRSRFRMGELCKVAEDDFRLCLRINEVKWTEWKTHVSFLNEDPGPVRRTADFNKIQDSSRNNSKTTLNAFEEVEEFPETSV
Assay: Whole-cell patch-clamp recording of hTRPV3 current in transfected HEK293T cells (2-APB induced)
Format: cell-based
Settings: current induced by 300 μM 2-APB, compounds tested up to 10 μM, room temperature
How it was run: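 IC50 comes from Hill fits, 0–100% bounds, of percent block of 2-APB-induced current, with compounds perfused at up to 10 μM. Currents elicited at +80/−80 mV (400-ms steps, 2-s interval, 0 mV hold), room temperature, symmetric NaCl/EDTA/HEPES pH 7.4 solutions. Cells: hTRPV3-transfected HEK293T, used 18 h after transfection.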

| Structure (SMILES) | IC50 [nM] |
| --- | --- |
| CCC(C)(C)C(=O)N1CC2(C1)Oc1cc(C(F)(F)F)ccc1-c1nc(NC(=O)c3c(OC)ncnc3OC)sc12 [compound 74, N-(1-(2,2-dimethylbutanoyl)-7′-(trifluoromethyl)spiro[azetidine-3,4′-chromeno[4,3-d]thiazol]-2′-yl)-4,6-dimethoxypyrimidine-5-carboxamide] | 100 to 1000 |
| COc1ncnc(OC)c1C(=O)Nc1nc2c(s1)C1(CCC(c3ccc(C)cc3)CC1)Oc1cc(C(F)(F)F)ccc1-2 (stereo not shown) [compound 36, 4,6-dimethoxy-N-(4′-(p-tolyl)-7-(trifluoromethyl)spiro[chromeno[4,3-d]thiazole-4,1′-cyclohexan]-2-yl)pyrimidine-5-carboxamide] | 100 to 1000 |
| COc1ncnc(OC)c1C(=O)Nc1nc2c(s1)C1(CN(C(=O)OC(C)C)C1)Oc1cc(C(F)(F)F)ccc1-2 [compound 115, isopropyl 2′-(4,6-dimethoxypyrimidine-5-carboxamido)-7′-(trifluoromethyl)spiro[azetidine-3,4′-chromeno[4,3-d]thiazole]-1-carboxylate] | 100 to 1000 |
| COc1ncnc(OC)c1C(=O)Nc1nc2c(s1)C1(CCN(C(C)C)CC1)Oc1cc(C(F)(F)F)ccc1-2 [compound 152, N-(1′-isopropyl-7-(trifluoromethyl)spiro[chromeno[4,3-d]thiazole-4,4′-piperidin]-2-yl)-4,6-dimethoxypyrimidine-5-carboxamide] | 100 to 1000 |
| CCOc1ncnc(OCC)c1C(=O)Nc1nc2c(s1)C(CC)(CC)Oc1cc(C(F)(F)F)ccc1-2 [compound 47, N-(4,4-diethyl-7-(trifluoromethyl)-4H-chromeno[4,3-d]thiazol-2-yl)-4,6-diethoxypyrimidine-5-carboxamide] | 100 to 1000 |
| CCC1(CC)Oc2cc(C(F)(F)F)ccc2-c2nc(NC(=O)c3c(OC)cccc3OC)sc21 [compound 142, N-(4,4-diethyl-7-(trifluoromethyl)-4H-chromeno[4,3-d]thiazol-2-yl)-2,6-dimethoxybenzamide] | ≥ 10000 |
| CCC1(CC)Oc2cc(C(F)(F)F)ccc2-c2nc(NC(=O)c3c(OC)nc(C)nc3OC)sc21 [compound 162, N-(4,4-diethyl-7-(trifluoromethyl)-4H-chromeno[4,3-d]thiazol-2-yl)-4,6-dimethoxy-2-methylpyrimidine-5-carboxamide] | 1000 to 10000 |
| COc1ncnc(OC)c1C(=O)Nc1nc2c(s1)CCc1ccc(Cl)cc1-2 [compound 3, N-(8-chloro-4,5-dihydronaphtho[1,2-d]thiazol-2-yl)-4,6-dimethoxypyrimidine-5-carboxamide] | 1000 to 10000 |
| COc1ncnc(OC)c1C(=O)Nc1nc2c(s1)C1(CNC1)Oc1cc(C(F)(F)F)ccc1-2 [compound 67, 4,6-dimethoxy-N-(7′-(trifluoromethyl)spiro[azetidine-3,4′-chromeno[4,3-d]thiazol]-2′-yl)pyrimidine-5-carboxamide] | ≥ 10000 |
| COc1ncnc(OC)c1C(=O)Nc1nc2c(s1)C1(CN(C(C)(C)CC(C)=O)C1)Oc1cc(C(F)(F)F)ccc1-2 [compound 167, 4,6-dimethoxy-N-(1-(2-methyl-4-oxopentan-2-yl)-7′-(trifluoromethyl)spiro[azetidine-3,4′-chromeno[4,3-d]thiazol]-2′-yl)pyrimidine-5-carboxamide] | 100 to 1000 |
| CCC1(CC)Oc2cc(C#N)ccc2-c2nc(NC(=O)c3c(OC)ncnc3OC)sc21 [compound 50, N-(7-cyano-4,4-diethyl-4H-chromeno[4,3-d]thiazol-2-yl)-4,6-dimethoxypyrimidine-5-carboxamide] | 100 to 1000 |
| COc1ncnc(OC)c1C(=O)Nc1nc2c(s1)COc1cc(C(F)(F)F)ccc1-2 [compound 1, 4,6-dimethoxy-N-(7-(trifluoromethyl)-4H-chromeno[4,3-d]thiazol-2-yl)pyrimidine-5-carboxamide] | 100 to 1000 |
| CCC1(CC)Oc2cc(C(F)(F)F)ccc2-c2nc(NC(=O)c3cc(Cl)nnc3OC)sc21 [compound 90, 6-chloro-N-(4,4-diethyl-7-(trifluoromethyl)-4H-chromeno[4,3-d]thiazol-2-yl)-3-methoxypyridazine-4-carboxamide] | 1000 to 10000 |
| CCC1(CC)Oc2cc(C3CC3)ccc2-c2nc(NC(=O)c3c(OC)ncnc3OC)sc21 [compound 54, N-(7-cyclopropyl-4,4-diethyl-4H-chromeno[4,3-d]thiazol-2-yl)-4,6-dimethoxypyrimidine-5-carboxamide] | 100 to 1000 |
| CCOC(=O)C1CCC2(CC1)Oc1cc(C(F)(F)F)ccc1-c1nc(NC(=O)c3c(OC)ncnc3OC)sc12 (stereo not shown) [compound 32, ethyl 2-(4,6-dimethoxypyrimidine-5-carboxamido)-7-(trifluoromethyl)spiro[chromeno[4,3-d]thiazole-4,1′-cyclohexane]-4′-carboxylate] | < 100 |
| CCC1(CC)Oc2cc(C(F)(F)F)ccc2-c2nc(NC(=O)c3cc(OC)nnc3OC)sc21 [compound 91, N-(4,4-diethyl-7-(trifluoromethyl)-4H-chromeno[4,3-d]thiazol-2-yl)-3,6-dimethoxypyridazine-4-carboxamide] | ≥ 10000 |
| CCC1(CC)Oc2cc(C(F)(F)F)ccc2-c2nc(N(C)C(=O)c3c(OC)ncnc3OC)sc21 [compound 53] | ≥ 10000 |
| CCC1(CC)Oc2cc(C(F)(F)F)ccc2-c2nc(NC(=O)c3c(Cl)ncnc3OC)sc21 [compound 112, 4-chloro-N-(4,4-diethyl-7-(trifluoromethyl)-4H-chromeno[4,3-d]thiazol-2-yl)-6-methoxypyrimidine-5-carboxamide] | 100 to 1000 |
| COc1ncnc(OC)c1C(=O)Nc1nc2c(s1)COc1cccc(C(F)(F)F)c1-2 [compound 99, 4,6-dimethoxy-N-(9-(trifluoromethyl)-4H-chromeno[4,3-d]thiazol-2-yl)pyrimidine-5-carboxamide] | ≥ 10000 |
| CCC1(CC)Oc2cc(C(F)(F)F)ccc2-c2nc(NS(=O)(=O)c3c(OC)ncnc3OC)sc21 [compound 56] | ≥ 10000 |
| CCC1(CC)Oc2cc(C(F)(F)F)ccc2-c2nc(NC(=O)c3c(C)ncnc3OC)sc21 [compound 57, N-(4,4-diethyl-7-(trifluoromethyl)-4H-chromeno[4,3-d]thiazol-2-yl)-4-methoxy-6-methylpyrimidine-5-carboxamide] | 100 to 1000 |
| COc1ncnc(OC)c1C(=O)Nc1nc2c(s1)COc1cc(F)ccc1-2 [compound 10, N-(7-fluoro-4H-chromeno[4,3-d]thiazol-2-yl)-4,6-dimethoxypyrimidine-5-carboxamide] | ≥ 10000 |
| COc1ncnc(OC)c1C(=O)Nc1nc2c(s1)C1(CCC(C(=O)N(C)Cc3ccccc3)CC1)Oc1cc(C(F)(F)F)ccc1-2 (stereo not shown) [compound 126, N-benzyl-2-(4,6-dimethoxypyrimidine-5-carboxamido)-N-methyl-7-(trifluoromethyl)spiro[chromeno[4,3-d]thiazole-4,1′-cyclohexane]-4′-carboxamide] | 100 to 1000 |
| COc1ncnc(OC)c1C(=O)Nc1nc2c(s1)-c1ccc(C(F)(F)F)cc1OC21CC[S+]([O-])CC1 (stereo not shown) [compound 95, 4,6-dimethoxy-N-(1′-oxido-7-(trifluoromethyl)-2′,3′,5′,6′-tetrahydrospiro[chromeno[3,4-d]thiazole-4,4′-thiopyran]-2-yl)pyrimidine-5-carboxamide] | 1000 to 10000 |
| COc1ncnc(OC)c1C(=O)Nc1nc2c(s1)C1(CN(C(=O)OC(C)(C)C)C1)Oc1cnccc1-2 [compound 156, tert-butyl 2′-(4,6-dimethoxypyrimidine-5-carboxamido)spiro[azetidine-3,4′-thiazolo[4′,5′: 4,5]pyrano[2,3-c]pyridine]-1-carboxylate] | 1000 to 10000 |
| COc1ncnc(OC)c1C(=O)Nc1nc2c(s1)CCCc1ccccc1-2 [compound 4, N-(5,6-dihydro-4H-benzo[6,7]cyclohepta[1,2-d]thiazol-2-yl)-4,6-dimethoxypyrimidine-5-carboxamide] | ≥ 10000 |
| COc1ncnc(OC)c1C(=O)Nc1nc2c(s1)C1(CCN(CC(C)C)CC1)Oc1cc(C(F)(F)F)ccc1-2 [compound 155, N-(1′-isobutyl-7-(trifluoromethyl)spiro[chromeno[4,3-d]thiazole-4,4′-piperidin]-2-yl)-4,6-dimethoxypyrimidine-5-carboxamide] | < 100 |
| COc1ncnc(OC)c1C(=O)Nc1nc2c(s1)C(C)(c1ccccc1)Oc1cc(C(F)(F)F)ccc1-2 (stereo not shown) [compound 25, 4,6-dimethoxy-N-(4-methyl-4-phenyl-7-(trifluoromethyl)-4H-chromeno[4,3-d]thiazol-2-yl)pyrimidine-5-carboxamide] | < 100 |
